“And” between values parts separate entries of the source, which are not always exact repeats. Identical values can stand only once. Like-named read-outs stand apart in the source and are kept apart here.
Experiments:
[1] = target: C. elegans (N2) complex I (NADH:ubiquinone oxidoreductase) (Caenorhabditis elegans, UniProt P24887+Q93873+Q94360); test: biochemical; type: biochemical
Experimental: (§1) Mitochondria were isolated from the following free-living nematode strains: C. elegans—N2, CB3474, ECA882, ECA917, ECA1075, ECA1080; C. briggsae—AF16; P. pacificus—PS312; and P. hermaphrodita—B178. With the exception of the P. hermaphrodita strain B178, adult worms of each strain were grown in bulk through liquid culture to obtain mitochondria in sufficient quantities. Due to poor growth in liquid media, mixed stage populations of P. hermaphrodita were washed off and collected from NGM plates seeded with OP50. The isolation of mitochondria from all free-living nematode strains followed the protocol previously outlined in Burns et al.[24]. In brief, a 1 L saturated culture of E. coli HB101 was concentrated 20-fold in 50 mL complete S-medium. ~500,000 L1 worms synchronized from an embryo preparation performed the day prior were added to the S-media/HB101 suspension and grown to adulthood over the course of 3.5 days at 20 °C with shaking at 165 rpm. Following growth, worms were collected in 10 ×15 mL conical tubes and washed 7 times in M9 buffer. Worm suspensions were then combined into a single 15 mL conical tube and diluted to a final volume of 15 mL with M9 buffer. 1 mL aliquots of worm suspension were then distributed to 15 × 1.5 mL screw-cap microcentrifuge tubes and were pelleted at 500 g for 1 min. Excess M9 was aspirated without disturbing the worm pellet. 600 μL ice-cold isolate buffer A (250 mM sucrose, 10 mM Tris (pH 7.5), 1 mM EDTA, 1 mM PMSF (freshly prepared)) and 300 μL cold glass beads were then added to each tube. Tubes were incubated on ice for 10 min, and the worms were then lysed by bead beating (6 x 30 s, with 1 min cooling intervals). Tubes containing worm lysate were centrifuged at 1,000 g for 10 min at 4 °C and the supernatant was transferred to 15 new microcentrifuge tubes on ice. The tubes were centrifuged a second time at 1,000 g for 10 min at 4 °C and the supernatant was once again transferred to 15 new microcentrifuge tubes on ice. These tubes were then centrifuged at 16,000 g for 10 min at 4 °C. The resulting mitochondrial pellet was washed twice by re-suspension in 300 μL of ice-cold isolate buffer B (250 mM sucrose, 10 mM Tris (pH 7.5), 1 mM EDTA). Following the final wash, isolation buffer was aspirated from each tube and the pellets were flash-frozen in ethanol/dry ice and stored at −80 °C until needed.
(§2) The enzymatic activities of individual ETC complexes (I-IV) were assessed spectrophotometrically in isolated mitochondria using a Varioskan LUX Multimode plate reader (ThermoFisher Scientific). Mitochondrial pellets previously isolated were thawed on ice and resuspended in ice-cold isolation buffer (250 mM sucrose, 10 mM Tris (pH 7.5), 1 mM EDTA). The BCA assay (Walker, 1994) was used to quantify the protein concentration of mitochondria suspensions; solutions were diluted to a concentration of 0.2 mg/mL for use in all assays. For the complex I assay, mitochondria pellets were freeze-thawed on ice three times to increase enzyme accessibility. […] 20 μL mitochondria suspension was then added/mixed with a pipette to initiate the reaction. Immediately following the addition of mitochondria, absorbance was measured (complex I and II: 600 nm; complex III and IV: 550 nm) in 30 s intervals over 15 min. Enzymatic activity was determined in each reaction by plotting absorbance versus time and calculating the slope of the curve during the initial linear phase of the reaction. […] Percent activity of each complex was calculated by dividing the enzyme-specific activity of each well by the enzyme-specific activity of the corresponding solvent controls.
Chemical solutions were prepared in complex I assay buffer composed of 25 mM KPi buffer (pH 7.5), 3 mg/mL bovine serum albumin (BSA), 80 μM NADH, 60 μM decylubiquinone, 160 μM DCIP, 2 μM antimycin A and 2 mM KCN.
For preliminary screens of hit compounds, compounds were screened at 100 μM; data are the average of at least three biological replicates.

[2] = target: C. elegans complex II (succinate dehydrogenase) (Caenorhabditis elegans, UniProt O62215+P41956+Q09545); test: In vitro complex II activity assay, C. elegans mitochondria; type: biochemical; settings: for Absorbance DCIP [600nm], complex II: single replicate
Sequence of C. elegans complex II (succinate dehydrogenase) (P41956 30-182): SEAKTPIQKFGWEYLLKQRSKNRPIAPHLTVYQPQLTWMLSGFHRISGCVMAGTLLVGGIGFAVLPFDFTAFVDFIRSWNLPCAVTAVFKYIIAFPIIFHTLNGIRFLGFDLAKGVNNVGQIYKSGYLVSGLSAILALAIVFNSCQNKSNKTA
Sequence of C. elegans complex II (succinate dehydrogenase) (Q09545 22-298): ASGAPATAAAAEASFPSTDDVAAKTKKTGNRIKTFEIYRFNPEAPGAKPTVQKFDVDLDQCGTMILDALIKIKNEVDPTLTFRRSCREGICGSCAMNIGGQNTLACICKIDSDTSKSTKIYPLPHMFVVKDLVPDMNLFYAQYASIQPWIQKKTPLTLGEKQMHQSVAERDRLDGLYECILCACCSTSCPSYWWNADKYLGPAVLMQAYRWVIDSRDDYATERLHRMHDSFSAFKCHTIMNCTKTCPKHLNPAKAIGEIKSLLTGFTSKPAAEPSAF
Sequence of C. elegans complex II (succinate dehydrogenase) (Q09508 32-646, further chain): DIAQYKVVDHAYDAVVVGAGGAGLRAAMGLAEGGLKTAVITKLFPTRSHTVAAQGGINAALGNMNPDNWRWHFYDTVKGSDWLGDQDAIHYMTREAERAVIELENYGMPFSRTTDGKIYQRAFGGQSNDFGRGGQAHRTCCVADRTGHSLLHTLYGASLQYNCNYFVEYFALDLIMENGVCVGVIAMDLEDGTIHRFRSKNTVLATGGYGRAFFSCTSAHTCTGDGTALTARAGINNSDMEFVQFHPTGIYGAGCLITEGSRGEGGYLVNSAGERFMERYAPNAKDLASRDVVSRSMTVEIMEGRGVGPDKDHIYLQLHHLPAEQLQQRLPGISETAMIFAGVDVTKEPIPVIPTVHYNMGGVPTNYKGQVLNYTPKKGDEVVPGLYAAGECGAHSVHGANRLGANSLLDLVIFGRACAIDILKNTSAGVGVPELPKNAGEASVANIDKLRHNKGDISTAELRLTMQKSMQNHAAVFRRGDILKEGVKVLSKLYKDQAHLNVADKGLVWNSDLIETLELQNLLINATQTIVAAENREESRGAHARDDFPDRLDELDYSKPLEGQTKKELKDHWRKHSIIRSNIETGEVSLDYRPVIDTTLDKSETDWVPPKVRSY
Sequence of C. elegans complex II (succinate dehydrogenase) (O62215 31-145): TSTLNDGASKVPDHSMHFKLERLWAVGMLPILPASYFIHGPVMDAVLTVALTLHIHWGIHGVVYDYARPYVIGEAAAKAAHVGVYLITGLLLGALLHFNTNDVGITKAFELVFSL
Experimental: as §1, §2
Complex II (succinate dehydrogenase) activity was assessed using the DCIP-coupled method previously described in Burns et al.[24].
For preliminary screens of hit compounds, compounds were screened at 100 μM; data are the average of at least three biological replicates. The complex I and II activity assays were used for additional dose-response experiments.

[3] = test system: C. elegans complex III (decylubiquinol-cytochrome C reductase); test: In vitro complex III activity assay, C. elegans mitochondria; type: biochemical, Caenorhabditis elegans; settings: for CIII Activity: 100 μM inhibitor, in vitro activity relative to solvent control, N2 C. elegans mitochondria
Experimental: as §1, §2
Antimycin A-sensitive complex III (decylubiquinol-cytochrome C […]) activity was determined by measuring the reduction of cytochrome C (CytC) as optimized in Luo et al.[59]. Decylubiquinol for complex III assays was prepared fresh as described in Janssen and Boyle, 2019[60].

[4] = test system: C. elegans complex IV (cytochrome C oxidase); test: In vitro complex IV activity assay, C. elegans mitochondria; type: biochemical, Caenorhabditis elegans; settings: for CIV Activity: 100 μM inhibitor, in vitro activity relative to solvent control, N2 C. elegans mitochondria
Experimental: as §1, §2
Complex IV (cytochrome C oxidase) activity was determined by following the oxidation of CytC in the protocol outlined by Janssen and Boyle, 2019[60]. Reduced CytC was prepared fresh by adding 1 μL increments of 1 M dithiothreitol to a 1 mM solution of CytC and vortexing. A colour change from brown to orange/pink signals when CytC has been reduced.

[5] = test system: L1 wild-type C. elegans; settings: for Screen "Hit" / Relative Motility: 50 μM; for Relative Motility: worm motility 3 hours after removal of KCN, relative to DMSO controls, single biological replicate; for Hit: active (hit) or inactive (non) at 50 μM in C. elegans assay of RQ-dependent metabolism
[6] = 100 μM of NPD compound, C. elegans mitochondria, individual biological replicates, 100 µM
[7] = 100 µM compound, relative to solvent control, mean (SEM)
[8] = 100 μM of NPD compound, C. elegans mitochondria, individual biological replicates
[9] = 100 μM of NPD compound, C. elegans mitochondria, mean of four biological replicates
[10] = hit = relative motility below 0.25 3 hours after removal of KCN

Sequence of C. elegans (N2) complex I (NADH:ubiquinone oxidoreductase) (Q94360 17-199): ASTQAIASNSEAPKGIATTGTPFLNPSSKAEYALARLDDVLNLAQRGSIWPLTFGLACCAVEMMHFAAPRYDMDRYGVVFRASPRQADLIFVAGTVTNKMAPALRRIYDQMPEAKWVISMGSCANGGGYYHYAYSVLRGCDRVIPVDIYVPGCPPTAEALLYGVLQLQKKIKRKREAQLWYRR
Sequence of C. elegans (N2) complex I (NADH:ubiquinone oxidoreductase) (P24887 whole entry): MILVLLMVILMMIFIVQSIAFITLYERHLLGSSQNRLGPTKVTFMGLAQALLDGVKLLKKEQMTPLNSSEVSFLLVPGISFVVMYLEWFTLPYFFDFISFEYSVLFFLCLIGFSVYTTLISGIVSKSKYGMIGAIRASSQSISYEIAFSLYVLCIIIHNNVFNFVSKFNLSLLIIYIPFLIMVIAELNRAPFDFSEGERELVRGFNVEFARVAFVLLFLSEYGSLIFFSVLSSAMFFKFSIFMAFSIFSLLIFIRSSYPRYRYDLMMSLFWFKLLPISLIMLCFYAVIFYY
Sequence of C. elegans (N2) complex I (NADH:ubiquinone oxidoreductase) (Q93873 31-482): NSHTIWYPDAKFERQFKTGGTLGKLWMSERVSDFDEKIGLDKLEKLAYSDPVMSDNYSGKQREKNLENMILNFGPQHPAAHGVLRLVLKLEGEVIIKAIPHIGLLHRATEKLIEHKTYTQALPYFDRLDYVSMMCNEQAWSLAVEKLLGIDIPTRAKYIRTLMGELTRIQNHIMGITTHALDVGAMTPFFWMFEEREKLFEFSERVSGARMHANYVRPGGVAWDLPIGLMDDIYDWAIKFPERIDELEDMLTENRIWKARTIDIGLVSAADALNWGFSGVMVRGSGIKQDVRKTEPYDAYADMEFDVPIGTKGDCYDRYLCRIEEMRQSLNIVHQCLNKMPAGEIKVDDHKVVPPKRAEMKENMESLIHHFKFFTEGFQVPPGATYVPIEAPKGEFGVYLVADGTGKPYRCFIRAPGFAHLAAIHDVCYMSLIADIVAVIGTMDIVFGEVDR

SMILES: CCCCCC[C@H]1C(=O)O[C@H](C)[C@H](NC(=O)c2cccc(NC=O)c2O)C(=O)O[C@@H](C)[C@@H]1OC(=O)CC(C)C [Antimycin A, reference compound]
- activity at 100 µM ([1]; 100 µM compound, relative to solvent control, mean (SEM), read-out: % Activity Complex I): 117%
- activity at 100 µM ([1]; 100 μM inhibitor, in vitro activity relative to solvent control, N2 C. elegans mitochondria, Mean, read-out: CI Activity): 117%
- activity at 100 µM ([1]; 100 μM inhibitor, in vitro activity relative to solvent control, N2 C. elegans mitochondria, single replicate, read-out: CI Activity): 119%
- Percent in vitro activity, Complex I (single replicate Rep1-Rep4) [1, 6]: 116.806% and 115.361% and 116.592%
- activity at 100 µM ([1]; 100 μM of NPD compound, C. elegans mitochondria, individual biological replicates, read-out: Percent in vitro activity, Complex I (single replicate Rep1-Rep4)): 119%
- activity at 100 µM ([1]; 100 μM of NPD compound, C. elegans mitochondria, mean of four biological replicates, read-out: Percent in vitro activity, Complex I (Mean)): 117%
- activity at 100 µM ([2]; 100 µM compound, relative to solvent control, mean (SEM), read-out: % Activity Complex II): 79.5%
- activity at 100 µM ([2]; 100 μM inhibitor, in vitro activity relative to solvent control, N2 C. elegans mitochondria, Mean, read-out: CII Activity): 79.5%
- Percent in vitro activity, Complex II (single replicate Rep1-Rep4) [2, 6]: 114.678% and 73.200% and 61.398% and 68.876%
- activity at 100 µM ([2]; 100 μM of NPD compound, C. elegans mitochondria, mean of four biological replicates, read-out: Percent in vitro activity, Complex II (Mean)): 79.5%
- % Activity Complex III [3, 7]: 0.00 (0.0) %
- CIII Activity ([3]; Mean): 0.000%
- CIII Activity ([3]; single replicate): 0.000%
- Percent in vitro activity, Complex III (single replicate Rep1-Rep4) [3, 8]: 0.000%
- Percent in vitro activity, Complex III (Mean) [3, 9]: 0.000%
- % Activity Complex IV [4, 7]: 94.00 (1.10) %
- CIV Activity ([4]; Mean): 94.002%
- CIV Activity ([4]; single replicate): 97.456% and 95.348% and 87.857% and 95.349%
- Percent in vitro activity, Complex IV (single replicate Rep1-Rep4) [4, 8]: 97.456% and 95.348% and 87.857% and 95.349%
- Percent in vitro activity, Complex IV (Mean) [4, 9]: 94.002%

SMILES: O=C(O)CC(=O)O [Malonate]
- Absorbance DCIP [600nm], complex II ([2]; 30 s): 0.481 and 0.464 and 0.499
- Absorbance DCIP [600nm], complex II ([2]; 60 s): 0.480 and 0.464 and 0.499
- Absorbance DCIP [600nm], complex II ([2]; 90 s): 0.480 and 0.464 and 0.499
- Absorbance DCIP [600nm], complex II ([2]; 120 s): 0.480 and 0.464 and 0.499
- Absorbance DCIP [600nm], complex II ([2]; 150 s): 0.480 and 0.463 and 0.499
- Absorbance DCIP [600nm], complex II ([2]; 180 s): 0.480 and 0.463 and 0.499
- Absorbance DCIP [600nm], complex II ([2]; 210 s): 0.480 and 0.463 and 0.498
- Absorbance DCIP [600nm], complex II ([2]; 240 s): 0.480 and 0.463 and 0.498
- Absorbance DCIP [600nm], complex II ([2]; 270 s): 0.479 and 0.462 and 0.498 and 0.486
- Absorbance DCIP [600nm], complex II ([2]; 300 s): 0.479 and 0.461 and 0.498 and 0.486
- Absorbance DCIP [600nm], complex II ([2]; 330 s): 0.478 and 0.461 and 0.497 and 0.485
- Absorbance DCIP [600nm], complex II ([2]; 360 s): 0.477 and 0.460 and 0.496 and 0.484
- Absorbance DCIP [600nm], complex II ([2]; 390 s): 0.476 and 0.460 and 0.495 and 0.483
- Absorbance DCIP [600nm], complex II ([2]; 420 s): 0.476 and 0.459 and 0.494 and 0.482
- Absorbance DCIP [600nm], complex II ([2]; 450 s): 0.475 and 0.459 and 0.494 and 0.482
- Absorbance DCIP [600nm], complex II ([2]; 480 s): 0.475 and 0.458 and 0.494 and 0.481
- Absorbance DCIP [600nm], complex II ([2]; 510 s): 0.474 and 0.457 and 0.493 and 0.481
- Absorbance DCIP [600nm], complex II ([2]; 540 s): 0.473 and 0.457 and 0.492 and 0.480
- Absorbance DCIP [600nm], complex II ([2]; 570 s): 0.473 and 0.457 and 0.492
- Absorbance DCIP [600nm], complex II ([2]; 600 s): 0.472 and 0.457 and 0.491
- Absorbance DCIP [600nm], complex II ([2]; 630 s): 0.471 and 0.457 and 0.491
- Absorbance DCIP [600nm], complex II ([2]; 660 s): 0.470 and 0.456 and 0.490
- Absorbance DCIP [600nm], complex II ([2]; 690 s): 0.470 and 0.456 and 0.490
- Absorbance DCIP [600nm], complex II ([2]; 720 s): 0.470 and 0.455 and 0.489
- Absorbance DCIP [600nm], complex II ([2]; 750 s): 0.470 and 0.455 and 0.489
- Absorbance DCIP [600nm], complex II ([2]; 780 s): 0.469 and 0.454 and 0.489
- Absorbance DCIP [600nm], complex II ([2]; 810 s): 0.469 and 0.454 and 0.489
- Absorbance DCIP [600nm], complex II ([2]; 840 s): 0.470 and 0.453 and 0.490
- Absorbance DCIP [600nm], complex II ([2]; 870 s): 0.469 and 0.453 and 0.489
- Absorbance DCIP [600nm], complex II ([2]; 900 s): 0.468 and 0.453 and 0.489

SMILES: COc1ccc2c(c1)nc(SCc1ccccc1)n2C [Compound 5649512]
- Screen "Hit" [5, 10]: Y (hits were identified as compounds that reduced relative motility below 0.25 (75% reduction))
- Relative Motility [5]: 0.190

SMILES: CCC(C)c1ccccc1OCCn1cnc2ccccc21 (centres unmarked) [Compound 7925137]
- Screen "Hit" [5, 10]: Y (hits were identified as compounds that reduced relative motility below 0.25 (75% reduction))
- Relative Motility [5]: 0.220

SMILES: CCOc1ccc(CNc2nc3ccccc3n2CC)cc1 [Compound 7758171]
- Screen "Hit" [5, 10]: Y (hits were identified as compounds that reduced relative motility below 0.25 (75% reduction))
- Relative Motility [5]: 0.180

SMILES: Brc1cc2nc[nH]c2c2ccccc12 [Compound 7873254]
- Screen "Hit" ([5]; hit = relative motility below 0.25 3 hours after the removal of KCN): Y (hits were identified as compounds that reduced relative motility below 0.25 (75% reduction))

SMILES: c1ccc(Cn2c(-c3cncs3)nc3ccccc32)cc1 [Compound 7815425]
- Hit [5]: non

SMILES: Cc1ccc2[nH]c(-c3ccccc3N)nc2c1 [Compound 5534607]
- Hit [5]: non

— publication PMC11079024, “Identification of a family of species-selective complex I inhibitors as potential anthelmintics” (Nature Communications, 2024)
